A short description of data set [1]: pKa by automated Mettler Toledo titration. It is filed as physicochemical. The settings on record: aqueous amine solution; 50 weight % aqueous amine solutions titrated with 0.5 N hydrochloric acid.
Data set [2] in a line: Solubility of tested amine in heptane phase by gas chromatography (toluene internal standard). Particulars: GC peak area of tested amine in neat heptane phase; heptane 10 g, toluene 0.1 g, amine 2.5 g, mixed at 20° C. for 1 hour, decanted 15 minutes; average of three injections.
Protocol: A solution of heptane (10 g), toluene (0.1 g) and the tested amine (2.5 g) are mixed at 20° C. for 1 hours. The mixture is decanted for 15 minutes and the neat heptane phase is analyzed by gas chromatography using toluene as internal standard. The injection is repeated three times and peak areas of tested amine are averaged.

For 3 compounds, pKa and area counts results are on record in US9732298B2, “Process for the treatment of liquefied hydrocarbon gas using 3-(amino) propane-1,2-diol compounds” (Dow Global Technologies LLC, priority 2012, dated 2017).

The pKa is the pH at which an ionisable group is half protonated. A lower pKa goes with a group that gives up its proton readily.

In data set [1], `NCC(O)CO` (stereo not drawn) [APD] showed a pKa of 9.3. In addition, the area counts in data set [2] was 0 counts.

Consider `CNCC(O)CO` (stereo not drawn) [MAPD], for which the pKa in data set [1] was determined as 9.7. This compound yielded an area counts in data set [2] of 176 counts.

In the case of `CN(CCO)CC(O)CO` (stereo not drawn) [HEMAPD], the pKa in data set [1] is 8.5. Besides, the area counts in data set [2] was 290 counts.
